Results: PubChem BioAssay (NCI)
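These data come from cells grown in 96-well plates and exposed to compound for 48 hours at five concentrations. GI50 = concentration required for 50% inhibition of growth. Definition used: TGI = concentration required for complete inhibition of growth.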

What was measured:
Experiment in all cases: inhibition of tumour cell growth, NCI panel, 48 h
[1] = test system: PC-3 prostate
[2] = test system: UACC-62 melanoma
[3] = test system: OVCAR-5 ovarian
[4] = test system: HS 578T breast
[5] = test system: OVCAR-4 ovarian
[6] = test system: M14 melanoma
[7] = test system: CAKI-1 renal
[8] = test system: NCI/ADR-RES ovarian
[9] = test system: NCI-H23 lung
[10] = test system: HL-60(TB) leukemia
[11] = test system: MCF7 breast
[12] = test system: EKVX NSCLC
[13] = test system: U251 CNS
[14] = test system: SK-MEL-5 melanoma
[15] = test system: HOP-92 NSCLC
[16] = test system: SR leukemia
[17] = test system: HOP-62 NSCLC
[18] = test system: DU-145 prostate
[19] = test system: A498 renal
[20] = test system: HCC-2998 colon
[21] = test system: 786-0 renal
[22] = test system: SF-268 CNS
[23] = test system: HCT-15 colon
[24] = test system: MDA-MB-468 breast
[25] = test system: OVCAR-3 ovarian
[26] = test system: K-562 leukemia
[27] = test system: A549 NSCLC
[28] = test system: HCT-116 colon
[29] = test system: BT-549 breast
[30] = test system: SF-295 CNS
[31] = test system: OVCAR-8 ovarian
[32] = test system: HT29 colon
[33] = test system: KM12 colon
[34] = test system: MOLT-4 leukemia
[35] = test system: SW-620 colon
[36] = test system: RXF 393 renal
[37] = test system: IGROV1 ovarian
[38] = test system: NCI-H460 lung
[39] = test system: LOX IMVI melanoma
[40] = test system: T-47D breast
[41] = test system: ACHN renal
[42] = test system: SF-539 CNS
[43] = test system: NCI-H226 lung
[44] = test system: RPMI-8226 leukemia
[45] = test system: SK-OV-3 ovarian
[46] = test system: TK-10 renal
[47] = test system: SNB-19 CNS
[48] = test system: SK-MEL-28 melanoma
[49] = test system: SN12C renal
[50] = test system: NCI-H522 lung
[51] = test system: MDA-MB-435
[52] = test system: MALME-3M melanoma
[53] = test system: COLO 205 colon
[54] = test system: CCRF-CEM leukemia
[55] = test system: UACC-257 melanoma
[56] = test system: SK-MEL-2 melanoma
[57] = test system: MDA-MB-231 breast
[58] = test system: SNB-75 CNS
[59] = test system: UO-31 renal

CC[C@]12C=CCN3CC[C@@]4(c5ccc(OC)cc5N(C)[C@H]4[C@@](O)(C(=O)OC)[C@@H]1OC(=O)CCC[P+](C1CCCCC1)(C1CCCCC1)C1CCCCC1)[C@@H]32
GI50 [1]: 1.71 µM | TGI [1]: 11.4 µM | GI50 [2]: 1.41 µM | TGI [2]: 3.06 µM | GI50 [3]: 3.19 µM | TGI [3]: 12 µM | GI50 [4]: 2.45 µM | TGI [4]: 7.91 µM | GI50 [5]: 2.39 µM | TGI [5]: 12.4 µM | GI50 [6]: 1.92 µM | TGI [6]: 8.29 µM | GI50 [7]: 16.4 µM | TGI [7]: 30.3 µM | GI50 [8]: 35.6 µM | TGI [8]: > 100 µM | GI50 [9]: 2.31 µM | TGI [9]: 8.3 µM | GI50 [10]: 0.322 µM | TGI [10]: 1.34 µM | GI50 [11]: 1.19 µM | TGI [11]: 7.67 µM | GI50 [12]: 3.09 µM | TGI [12]: 16 µM | GI50 [13]: 0.746 µM | TGI [13]: 11.8 µM | GI50 [14]: 1.76 µM | TGI [14]: 3.28 µM | GI50 [15]: 1.01 µM | TGI [15]: 4.03 µM | GI50 [16]: 1.35 µM | TGI [16]: 4.01 µM | GI50 [17]: 3.68 µM | TGI [17]: 13.7 µM | GI50 [18]: 3.75 µM | TGI [18]: 15.2 µM | GI50 [19]: 12.4 µM | TGI [19]: 26.2 µM | GI50 [20]: 1.7 µM | TGI [20]: 7.68 µM | GI50 [21]: 4.45 µM | TGI [21]: 16.7 µM | GI50 [22]: 3.23 µM | TGI [22]: 13 µM | GI50 [23]: 15.3 µM | TGI [23]: 29.2 µM | GI50 [24]: 0.313 µM | TGI [24]: 1.29 µM | GI50 [25]: 1.74 µM | TGI [25]: 9.08 µM | GI50 [26]: 1.32 µM | TGI [26]: 12.5 µM | GI50 [27]: 3.46 µM | TGI [27]: 13.7 µM | GI50 [28]: 2.85 µM | TGI [28]: 11.4 µM | GI50 [29]: 2.44 µM | TGI [29]: 5.82 µM | GI50 [30]: 4.41 µM | TGI [30]: 16.5 µM | GI50 [31]: 2.97 µM | TGI [31]: 11.7 µM | GI50 [32]: 1.88 µM | TGI [32]: 4.05 µM | GI50 [33]: 1.63 µM | TGI [33]: 4.08 µM | GI50 [34]: 2.16 µM | TGI [34]: 6.51 µM | GI50 [35]: 2.95 µM | TGI [35]: 14.6 µM | GI50 [36]: 1.47 µM | TGI [36]: 5.04 µM | GI50 [37]: 1.39 µM | TGI [37]: 5.28 µM | GI50 [38]: 2.77 µM | TGI [38]: 11.3 µM | GI50 [39]: 2.88 µM | TGI [39]: 10.5 µM | GI50 [40]: 1.32 µM | TGI [40]: 11.4 µM | GI50 [41]: 15.2 µM | TGI [41]: 28.6 µM | GI50 [42]: 2.94 µM | TGI [42]: 10.7 µM | GI50 [43]: 4.06 µM | TGI [43]: 17.2 µM | GI50 [44]: 0.383 µM | TGI [44]: 2.22 µM | GI50 [45]: 2.59 µM | TGI [45]: 7.57 µM | GI50 [46]: 2.73 µM | TGI [46]: 12.1 µM | GI50 [47]: 2.22 µM | TGI [47]: 11.5 µM | GI50 [48]: 1.08 µM | TGI [48]: 2.76 µM | GI50 [49]: 2.89 µM | TGI [49]: 10.1 µM | GI50 [50]: 0.688 µM | TGI [50]: 4.98 µM | GI50 [51]: 1.83 µM | TGI [51]: 5.33 µM | GI50 [52]: 1.46 µM | TGI [52]: 3.26 µM | GI50 [53]: 0.43 µM | TGI [53]: 1.44 µM | GI50 [54]: 1.69 µM | TGI [54]: 11.6 µM | GI50 [55]: 1.26 µM | TGI [55]: 3.34 µM

COc1ccc2nc(Nc3cccc(NC(=O)c4ccc(CN5CCN(C)CC5)c(C(F)(F)F)c4)c3)ccc2c1
GI50 [1]: 2.9 µM | TGI [1]: 8.68 µM | GI50 [2]: 6.45 µM | TGI [2]: 11.9 µM | GI50 [3]: 6.1 µM | TGI [3]: 11.5 µM | GI50 [4]: 4.14 µM | TGI [4]: 15 µM | GI50 [5]: 4.32 µM | TGI [5]: 10 µM | GI50 [6]: 3.63 µM | TGI [6]: 8.58 µM | GI50 [7]: 4.9 µM | TGI [7]: 9.97 µM | GI50 [9]: 5.06 µM | TGI [9]: 10.4 µM | GI50 [10]: 5.46 µM | TGI [10]: 12.4 µM | GI50 [11]: 1.37 µM | TGI [11]: 6.12 µM | GI50 [12]: 4.53 µM | TGI [12]: 9.61 µM | GI50 [13]: 3.77 µM | TGI [13]: 8.84 µM | GI50 [56]: 5.98 µM | TGI [56]: 11.4 µM | GI50 [57]: 1.84 µM | TGI [57]: 6.49 µM | GI50 [14]: 5.1 µM | TGI [14]: 10.2 µM | GI50 [15]: 1.36 µM | TGI [15]: 6.15 µM | GI50 [16]: 1.31 µM | TGI [16]: 5.72 µM | GI50 [17]: 6.36 µM | TGI [17]: 12 µM | GI50 [18]: 5.23 µM | TGI [18]: 10.4 µM | GI50 [19]: 7.36 µM | TGI [19]: 13.2 µM | GI50 [20]: 5.25 µM | TGI [20]: 10.7 µM | GI50 [21]: 4.99 µM | TGI [21]: 10.1 µM | GI50 [22]: 5.2 µM | TGI [22]: 12.5 µM | GI50 [58]: 0.684 µM | TGI [58]: 6.45 µM | GI50 [59]: 5.68 µM | TGI [59]: 10.9 µM | GI50 [23]: 1.18 µM | TGI [23]: 4.45 µM | GI50 [24]: 1.56 µM | TGI [24]: 7.09 µM | GI50 [25]: 5.89 µM | TGI [25]: 11.2 µM | GI50 [26]: 0.882 µM | TGI [26]: 2.59 µM | GI50 [27]: 4.36 µM | TGI [27]: 9.66 µM | GI50 [28]: 2.41 µM | TGI [28]: 7.74 µM | GI50 [29]: 5.58 µM | TGI [29]: 10.9 µM | GI50 [30]: 3.41 µM | TGI [30]: 8.74 µM | GI50 [31]: 5.82 µM | TGI [31]: 11.1 µM | GI50 [32]: 1.32 µM | TGI [32]: 5.08 µM | GI50 [33]: 4.05 µM | TGI [33]: 9.62 µM | GI50 [34]: 1.63 µM | TGI [34]: 6.75 µM | GI50 [35]: 5.89 µM | TGI [35]: 11.6 µM | GI50 [36]: 1.75 µM | TGI [36]: 6.96 µM | GI50 [37]: 6.22 µM | TGI [37]: 12.3 µM | GI50 [38]: 1.88 µM | TGI [38]: 7.21 µM | GI50 [39]: 1.55 µM | TGI [39]: 6.05 µM | GI50 [40]: 4.12 µM | TGI [40]: 9.96 µM | GI50 [41]: 4.88 µM | TGI [41]: 9.84 µM | GI50 [42]: 2.08 µM | TGI [42]: 7.59 µM | GI50 [43]: 4.6 µM | TGI [43]: 9.77 µM | GI50 [44]: 3.14 µM | TGI [44]: 10.3 µM | GI50 [45]: 5.99 µM | TGI [45]: 11.4 µM | GI50 [46]: 6.52 µM | TGI [46]: 12.1 µM | GI50 [47]: 6.14 µM | TGI [47]: 11.5 µM | GI50 [48]: 5.33 µM | TGI [48]: 10.4 µM | GI50 [49]: 5.49 µM | TGI [49]: 10.8 µM | GI50 [50]: 4.88 µM | TGI [50]: 10.3 µM | GI50 [51]: 5.73 µM | TGI [51]: 11 µM | GI50 [52]: 4.62 µM | TGI [52]: 9.54 µM | GI50 [53]: 5.78 µM | TGI [53]: 11.7 µM | GI50 [54]: 2.15 µM | TGI [54]: 7.65 µM | GI50 [55]: 4.35 µM | TGI [55]: 9.13 µM
